Reference: US4769374A, “Tetrahydroisoquinoline ethyl esters of 1,4-dihydropyridines and antihypertensive compositions” (Poli Industria Chimica S.p.A., priority 1984, dated 1988)

Columns and labels:
[1] = system: spontaneous hypertensive rats (systolic pressure of the caudal artery); test: Antihypertensive activity per os in spontaneous hypertensive rats; type: in vivo, rat; conditions: 3 mg/kg p.o., percentage of the decrease of the systolic pressure
Method: The antihypertensive activity was determined by administering spontaneous hypertensive rats with the compounds of the invention, by oral route, as a suspension in carboxymethylcellulose containing 0.5% of physiologic solution. […] The obtained results are reported in Table 2, and are expressed as the percentage of the decrease of the sistolic pressure after treatment.

in vivo = conditions: mouse, mice of both sexes, oral, day 14 of observation
Method: The acute toxicity was determined on mice of both sexes upon oral administration of the compounds to be tested as a suspension in carboxymethylcellulose containing 0.5% of physiologic solution, and it was expressed as an LD50 value at day 14 of observation.

Compound	Pressure variations (pressure time 0 - less pressure after administration), 15 min. [1] [%]	Pressure variations (pressure time 0 - less pressure after administration), 1 h [1] [%]	Pressure variations (pressure time 0 - less pressure after administration), 3 h [1] [%]	Pressure variations (pressure time 0 - less pressure after administration), 5 h [1] [%]	LD50 at 336 h (in vivo) [mg/kg]
CCOC(=O)C1=C(C)NC(C)=C(C(=O)OCCN2CCc3ccccc3C2)C1c1cccc([N+](=O)[O-])c1 (stereo not drawn) [I, R = C2 H5]	43 ± 10.2	31 ± 7.1	22 ± 9.4	11 ± 6.9	1000
COC(=O)C1=C(C)NC(C)=C(C(=O)OCCN2CCc3ccccc3C2)C1c1cccc([N+](=O)[O-])c1.Cl (stereo not drawn) [I, R = CH3, 2-(1,2,3,4-Tetrahydro-isoquinoline-2-yl)ethyl 1,4-dihydro-2,6-dimethyl-4-(3-nitrophenyl)-5-methoxycarbonyl-pyridine-3-carboxylate, mono-hydrochloride]	54 ± 6.4	86 ± 7.3	73 ± 12.8	49 ± 8.7	1000
CC1=C(C(=O)OCCN2CCc3ccccc3C2)C(c2cccc([N+](=O)[O-])c2)C(C(=O)OC(C)C)=C(C)N1 (stereo not drawn) [I, R = CH(CH3)2]	39 ± 7.6	38 ± 6.9	18 ± 6.1	2 ± 3.1	1000
COC(=O)C1=C(C)NC(C)=C(C(=O)OCCN(C)Cc2ccccc2)C1c1cccc([N+](=O)[O-])c1 (stereo not drawn) [Nicardipine, reference compound]	49 ± 11.3	52 ± 9.7	36 ± 6.2	21 ± 5.8	350
COC(=O)C1=C(C)NC(C)=C(C(=O)OC)C1c1ccccc1[N+](=O)[O-] [Nifedipine, reference compound]	41 ± 5.4	23 ± 6.1	12 ± 4.3	9 ± 5.6	
